Paper PMC10386454 (Pharmaceutics, 2023)

Tests used:
[1] = tested on: HEK293 empty vector transfected cells (mock); assay: ERK1/2 activation assay in mock HEK293 cells; assay type: cell-based, human; conditions: MLT 1 µM
human MT1 [2] = target: T1, human MT1 (Homo sapiens, UniProt P48039); assay: Inhibition of forskolin-stimulated cAMP production, HEK293 cells expressing MT1; assay type: cell-based; design: expressed in transfected cells; conditions: single concentration: extracts […] (Ex18 0.005 mg/mL), melatonin 1 µM; normalized to mock cell responses
Target sequence in this assay (P48039 whole entry, the tested form may be a part): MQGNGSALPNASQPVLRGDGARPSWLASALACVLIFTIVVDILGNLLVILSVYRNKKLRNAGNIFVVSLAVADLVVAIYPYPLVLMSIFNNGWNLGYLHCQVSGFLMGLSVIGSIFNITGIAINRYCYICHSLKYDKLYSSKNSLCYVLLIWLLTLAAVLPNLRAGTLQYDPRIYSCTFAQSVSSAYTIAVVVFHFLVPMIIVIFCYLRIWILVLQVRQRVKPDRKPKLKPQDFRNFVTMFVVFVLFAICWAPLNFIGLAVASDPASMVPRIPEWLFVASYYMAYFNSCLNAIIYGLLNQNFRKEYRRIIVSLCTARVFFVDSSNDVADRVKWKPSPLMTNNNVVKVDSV

[3] = tested on: HEK293 empty vector transfected cells (mock); assay: β-arrestin2 recruitment assay (PathHunter), control cells with β-gal donor not fused to melatonin receptors; assay type: cell-based, human; conditions: extracts […], Ex18 0.005 mg/mL, MLT 1 µM
human MT1 [4] = target: T1, human MT1; assay: β-arrestin2 recruitment assay (PathHunter), MT1; assay type: cell-based; design: host or cells: HEK 293 PathHunter parental cells, transient transfection of the receptor; conditions: single saturating concentration
Target sequence in this assay (P48039 whole entry, the tested form may be a part): as above
Target sequence in this assay (P32121 whole entry partner, the tested form may be a part): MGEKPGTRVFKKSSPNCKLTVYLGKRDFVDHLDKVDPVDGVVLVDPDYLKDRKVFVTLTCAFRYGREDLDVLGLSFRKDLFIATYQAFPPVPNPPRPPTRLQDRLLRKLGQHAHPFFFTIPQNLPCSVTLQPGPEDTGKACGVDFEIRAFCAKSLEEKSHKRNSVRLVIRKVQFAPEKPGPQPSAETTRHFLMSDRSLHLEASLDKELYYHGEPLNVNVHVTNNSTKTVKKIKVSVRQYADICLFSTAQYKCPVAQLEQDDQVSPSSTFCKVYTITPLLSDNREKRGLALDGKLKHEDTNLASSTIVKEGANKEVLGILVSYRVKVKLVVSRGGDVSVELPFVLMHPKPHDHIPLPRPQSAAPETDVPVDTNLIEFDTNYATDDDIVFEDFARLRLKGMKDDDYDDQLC

[5] = tested on: HEK293 empty vector transfected cells (mock); assay: Forskolin-stimulated cAMP production in mock-transfected HEK293 cells; assay type: cell-based, human; conditions: extracts […] (Ex18 0.005 mg/mL), melatonin 1 µM
human MT2 receptor = target: T2, human MT2 receptor (Homo sapiens, UniProt P49286); assay: 2-[125I]iodomelatonin competitive binding assay, MT2
T2 construct: expressed in transfected cells
T2 sequence (P49286 1-362): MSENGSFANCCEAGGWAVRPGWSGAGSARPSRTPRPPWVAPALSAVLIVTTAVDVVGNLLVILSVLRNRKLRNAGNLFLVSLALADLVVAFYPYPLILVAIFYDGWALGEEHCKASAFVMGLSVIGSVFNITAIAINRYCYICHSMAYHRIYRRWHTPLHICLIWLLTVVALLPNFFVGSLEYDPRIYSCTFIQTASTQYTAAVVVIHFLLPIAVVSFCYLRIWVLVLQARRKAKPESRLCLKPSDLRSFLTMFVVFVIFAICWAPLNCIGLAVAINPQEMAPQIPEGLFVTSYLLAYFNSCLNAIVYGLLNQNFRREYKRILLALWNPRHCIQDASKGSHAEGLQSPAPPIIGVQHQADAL

human MT1 [6] = target: T1, human MT1; assay: 2-[125I]iodomelatonin competitive binding assay, MT1; design: expressed in transfected cells
Target sequence in this assay (P48039 whole entry, the tested form may be a part): as the sequence (P48039 whole entry, the tested form may be a part) above

effect on FSK-stimulated cAMP production, cells expressing MT1 (human MT1 [2])	β-arrestin2 recruitment, MT1-β-gal donor fusion protein (human MT1 [4])	2-[125I]-MLT binding to MT2, result in words (human MT2 receptor)	2-[125I]-MLT binding to MT1, result in words (human MT1 [6])	Molecule	effect on ERK1/2 pathway in mock cells, in words [1]	β-arrestin2 recruitment in control cells (β-gal donor alone) [3]	effect on forskolin (FSK)-stimulated cAMP levels in mock cells [5]
decreased FSK-stimulated cAMP production	induced β-arrestin2 recruitment			COc1ccc2[nH]cc(CCNC(C)=O)c2c1 [Melatonin, N-acety-5-methoxyltryptamine]	without effect	Neither melatonin nor any extract induced β-arrestin2 recruitment	did not show any effect
		no impact	no impact	maltodextrin			
